From patent US7138426B2, “Estrogen receptor modulators” (Merck & Co., Inc., priority 2003, dated 2006)

Test system: MCF-7 cells
Assay: MCF-7 Estrogen Dependent Proliferation Assay
Format: cell-based
Settings: Homo sapiens, MCF7, addition to Estrogen Depleted Media (EDM), read-out: EC50 of growth stimulation of MCF-7 cells
Text: MCF-7 cells (ATCC #HTB-22) are human mammary gland adenocarcinoma cells that require estrogen for growth. The growth media (GM) for the MCF-7 cells is Minimum Essential Media (without phenol red) supplemented with fetal bovine serum (FBS) to 10%. The FBS serves as the sole source of estrogen and this GM supports the full growth of the cells and is used for the routine growth of the cell cultures. When MCF-7 cells are placed in a media in which 10% Charcoal-Dextran treated fetal bovine serum (CD-FBS) is substituted for FBS, the cells will cease to divide but will remain viable. […] The addition of estradiol to EDM stimulates the growth of the MCF-7 cells in a dose dependent manner with an EC50 of 2 pM. Growing MCF-7 cells are washed several times with EDM and the cultures then maintained in EDM for a minimum of 6 days in order to deplete the cells of endogenous estrogen. […] At this point, the culture supernatants are aspirated, the cells washed 2× with PBS, the wash solution aspirated and the protein content of each well determined. Each drug dilution is evaluated on a minimum of 5 wells and the range of dilution of the test compounds in the assay is 0.001 nM to 1000 nM. […] The assay is terminated at day 8–10 when the appropriate controls reach 80–90% confluency and the protein content of each well is determined as above.

EC50: 2 pM
SMILES: C[C@]12CC[C@@H]3c4ccc(O)cc4CC[C@H]3[C@@H]1CC[C@@H]2O [estradiol]
